Assay results reported in patent US20240226107A1, “UBIQUITIN-SPECIFIC PROTEASE 1 (USP1) INHIBITOR” (SIMCERE ZAIMING PHARMACEUTICAL CO., LTD., priority 2021, published 2024).

Experiments:
[1] = biological target: USP1 (Recombinant Human His6-USP1/His6-UAF1 Complex Protein) (Homo sapiens (Human), UniProt O94782); assay: In vitro activity assay for USP1 (Ub-CHOP2-Reporter deubiquitination assay); type: biochemical; conditions: 0.5 h incubation at room temperature, read-out: In vitro inhibitory activity of USP1 IC50
USP1 (Recombinant Human His6-USP1/His6-UAF1 Complex Protein), sequence (O94782 whole entry): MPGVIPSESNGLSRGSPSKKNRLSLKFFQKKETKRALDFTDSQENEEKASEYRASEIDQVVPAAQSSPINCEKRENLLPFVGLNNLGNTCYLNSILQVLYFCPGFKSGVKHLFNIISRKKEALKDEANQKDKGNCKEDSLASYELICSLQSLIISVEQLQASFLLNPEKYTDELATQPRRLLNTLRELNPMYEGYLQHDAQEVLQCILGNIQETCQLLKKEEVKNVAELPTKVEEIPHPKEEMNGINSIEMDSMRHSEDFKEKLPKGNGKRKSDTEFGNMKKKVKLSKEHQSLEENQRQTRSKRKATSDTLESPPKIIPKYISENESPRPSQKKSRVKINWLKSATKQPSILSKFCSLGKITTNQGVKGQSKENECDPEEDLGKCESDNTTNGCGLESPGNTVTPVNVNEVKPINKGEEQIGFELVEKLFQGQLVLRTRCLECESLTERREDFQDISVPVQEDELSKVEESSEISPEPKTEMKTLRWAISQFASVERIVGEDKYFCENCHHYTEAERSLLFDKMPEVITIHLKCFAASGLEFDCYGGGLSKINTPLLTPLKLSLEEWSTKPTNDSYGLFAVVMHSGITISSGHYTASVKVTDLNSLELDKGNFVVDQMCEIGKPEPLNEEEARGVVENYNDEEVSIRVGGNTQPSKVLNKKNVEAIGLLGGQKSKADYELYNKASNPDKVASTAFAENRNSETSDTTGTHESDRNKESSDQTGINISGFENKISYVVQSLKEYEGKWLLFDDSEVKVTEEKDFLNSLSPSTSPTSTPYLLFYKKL
USP1 (Recombinant Human His6-USP1/His6-UAF1 Complex Protein), sequence (Q8TAF3 whole entry partner): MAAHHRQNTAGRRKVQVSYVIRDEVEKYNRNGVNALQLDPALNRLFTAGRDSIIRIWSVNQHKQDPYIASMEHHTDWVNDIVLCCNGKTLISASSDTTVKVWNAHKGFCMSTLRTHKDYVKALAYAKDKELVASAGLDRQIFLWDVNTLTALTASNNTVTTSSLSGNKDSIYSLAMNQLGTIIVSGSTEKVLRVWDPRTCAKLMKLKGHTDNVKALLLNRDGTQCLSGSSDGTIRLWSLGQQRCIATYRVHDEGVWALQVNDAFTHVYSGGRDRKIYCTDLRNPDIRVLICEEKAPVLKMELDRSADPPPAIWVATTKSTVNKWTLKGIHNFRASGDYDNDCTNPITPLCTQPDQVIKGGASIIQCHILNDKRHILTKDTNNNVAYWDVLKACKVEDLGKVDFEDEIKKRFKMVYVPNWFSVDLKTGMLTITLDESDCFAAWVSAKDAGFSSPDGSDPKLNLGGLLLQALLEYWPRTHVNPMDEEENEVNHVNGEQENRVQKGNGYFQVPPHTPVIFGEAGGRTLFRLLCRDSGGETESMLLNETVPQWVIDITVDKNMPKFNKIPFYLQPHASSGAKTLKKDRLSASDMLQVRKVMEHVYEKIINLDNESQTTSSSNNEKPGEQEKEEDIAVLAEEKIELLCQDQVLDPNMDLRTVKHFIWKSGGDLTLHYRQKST
Procedure: The assay kit (Ub-CHOP2-Reporter Deubiquitination Assay Kit) was purchased from Lifesensors, with Cat. No. of PR1101. The assay kit was subpackaged and stored at −80° C.
Each compound to be tested was dissolved with DMSO to 10 mM. The compound and pure DMSO (with a total volume of 50 nL) were loaded to each well of the 384-well plate by using an ECHO instrument to obtain gradient-diluted sample concentrations at different ratios. The enzyme was diluted with a freshly prepared reaction solution (20 mM Tris-HCl (pH 8.0), 2 mM CaCl2, 2 mM β-mercaptoethanol, 0.05% CHAPS, and ddH2O). To each well, 5 μL of diluted enzyme reaction solution was added, then the plate was centrifuged and oscillated to mix the enzyme and the compound, and the mixture was centrifuged again and placed on ice. The kit reporter system and the substrate were diluted with the reaction solution, then 5 μL of diluted liquid was added to each well, and mixed by centrifugation. The mixture was incubated at room temperature for 0.5 h. […] The inhibitory activity (IC50 values) of the compound on enzyme activity was calculated by using a four-parameter Logistic Model. […] A, B, C, and D are four parameters.

[2] = test system: MDA-MB-436 cells;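 also: MDA-MB-436 proliferation over 7 days with compound, viability read as ATP luminescence (CellTiter-Glo), inhibition relative to DMSO-only wells, day 0 signal as background, GI50 from four-parameter fit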
Procedure: Assay based on CellTiter-Glo luminescent cell viability assay system.
The assay kit (CellTiter-Glo® Luminescent Cell Viability Assay) was purchased from Promega, with Cat. No. of G7573, and was stored at −30° C. after subpackage. The kit is a homogeneous assay method for assaying the number of viable cells in a culture based on quantitative determination of ATP. The kit produces a luminescence signal proportional to the amount of ATP present, and the amount of ATP is directly proportional to the number of cells in the culture.
The cultured cells were trypsinized, collected and centrifuged, then resuspended at an adjusted concentration in a culture solution (DMEM+10% FBS), and cultured overnight on a 384-well plate (400 cells/20 μl/well) in a cell incubator with 5% CO2 at 37° C. An ECHO instrument was used to added the compound and pure DMSO onto each well of the 384-well plate. The total volume of the compound and DMSO is 100 nL, and the instrument obtains gradient diluted sample concentrations through different ratios. To each well, 30 μL of culture solution was added, and after mixing by centrifugal oscillation and re-centrifugation, the cells were cultured in a cell incubator for 7 days (one column of cells was subjected to CTG assay on the day of dosing). After day 7, 25 μL of CTG assay solution was added to each well, and after mixing by centrifugal oscillation and re-centrifugation, the cells were placed at room temperature away from light for 10 min. In terms of chemiluminescence signals, an Envision plate reader (PerkinElmer, emission wavelength: 400-700 nm) was used to measure a signal in each well. The chemiluminescence value [RLU]cpd on day 7 was obtained for the treatment group, the chemiluminescence value [RLU]cell on day 7 was obtained for the non-treatment group (given DMSO only), and the chemiluminescence value [RLU]background on day 0 was obtained for the parallel non-treatment group (given DMSO only) by CTG assay on day 0. […] In the following equation, x represents the concentration of the compound in a logarithmic form; and F(x) represents an effect value (inhibition rate of proliferation at the concentration): F(x)=(A+((B−A)/(1+((C/x)^D)))). A, B, C, and D are four parameters.

For `CC(C)c1ncccc1-c1ncc2c(n1)N(Cc1ccc(-c3nc(C(F)(F)F)cn3C)cc1)CCO2` [Compound 1, 2-(2-isopropylpyridin-3-yl)-8-(4-(1-methyl-4-(trifluoromethyl)-1H-imidazol-2-yl)benzyl)-7,8-dihydro-6H-pyrimido[5,4-b][1,4]oxazine], the IC50 [1] was 18 nM and the GI50 [2] was 22.9 nM.

`COc1ncnc(C2CC2)c1-c1ncc2c(n1)N(Cc1ccc(-c3nc(C(F)(F)F)cn3C)cc1)CCO2` [Compound 2, 2-(4-cyclopropyl-6-methoxypyrimidin-5-yl)-8-(4-(1-methyl-4-(trifluoromethyl)-1H-imidazol-2-yl)benzyl)-7,8-dihydro-6H-pyrimido[5,4-b][1,4]oxazine] showed a GI50 [2] of 20.9 nM.

`COc1ncnc(C2CC2)c1-c1cc2c(cn1)OCCN2Cc1ccc(-c2nc(C(F)(F)F)cn2C)cc1` [Compound 3, 7-(4-cyclopropyl-6-methoxypyrimidin-5-yl)-1-(4-(1-methyl-4-(trifluoromethyl)-1H-imidazol-2-yl)benzyl)-2,3-dihydro-1H-pyrido[3,4-b][1,4]oxazine] was tested, and the IC50 [1] was 21.3 nM and the GI50 [2] was 47.3 nM.

For `COc1ncnc(C2CC2)c1-c1ncc2c(n1)N(Cc1ccc(-c3nc(C(F)(F)F)cn3C)cc1)CC(=O)N2` [Compound 5, 2-(4-cyclopropyl-6-methoxypyrimidin-5-yl)-8-(4-(1-methyl-4-(trifluoromethyl)-1H-imidazol-2-yl)benzyl)-7,8-dihydropteridin-6(5H)-one], the IC50 [1] was 43.7 nM and the GI50 [2] was 152 nM.

For `COc1ncnc(C2CC2)c1-c1ncc2c(n1)N(Cc1ccc(-c3nc(C(F)(F)F)cn3C)cc1)C(=O)CO2` [Compound 6, 2-(4-cyclopropyl-6-methoxypyrimidin-5-yl)-8-(4-(1-methyl-4-(trifluoromethyl)-1H-imidazol-2-yl)benzyl)-6H-pyrimido [5,4-b][1,4]oxazin-7(8H)-one], the GI50 [2] was 420 nM.

With `COc1ncnc(C2CC2)c1-c1ncc2c(n1)N(Cc1ccc(-c3nc(C(F)(F)F)cn3C)cc1F)CCO2` [Compound 9, 2-(4-cyclopropyl-6-methoxypyrimidin-5-yl)-8-(2-fluoro-4-(1-methyl-4-(trifluoromethyl)-1H-imidazol-2-yl)benzyl)-7,8-dihydro-6H-pyrimido[5,4-b][1,4]oxazine] the GI50 [2] was 50.4 nM.

With `COc1ncnc(C2CC2)c1-c1ncc2c(n1)N(Cc1ccc(-c3nc(C(F)(F)F)cn3C)c(F)c1)CCO2` [Compound 32, 2-(4-cyclopropyl-6-methoxypyrimidin-5-yl)-8-(3-fluoro-4-(1-methyl-4-(trifluoromethyl)-1H-imidazol-2-yl)benzyl)-7,8-dihydro-6H-pyrimido[5,4-b][1,4]oxazine] the GI50 [2] was 11.4 nM.

In the case of `COc1ncnc(C2CC2)c1-c1ncc2c(n1)N(Cc1ccc(-n3nc(C(F)(F)F)cc3C)cc1)CC(=O)N2C1CC1` [Compound 72, 2-(4-cyclopropyl-6-methoxypyrimidin-5-yl)-8-(4-(5-methyl-3-(trifluoromethyl)-1H-pyrazol-1-yl)benzyl)-5-cyclopropyl-7,8-dihydropteridin-6(5H)-one], the IC50 [1] is reported as 38 nM.

For `Cc1cc(C(F)(F)F)nn1-c1ccc(CN2C(=O)OC(C)(C)c3cnc(-c4c(OC(F)F)ncnc4C4CC4)nc32)cc1` [Compound 75, 7-(4-cyclopropyl-6-difluoromethoxypyrimidin-5-yl)-4,4-dimethyl-1-(4-(5-methyl-3-(trifluoromethyl)-1H-pyrazol-1-yl)benzyl)-1,4-dihydro-2H-pyrimido[4,5-d][1,3]oxazin-2-one], the IC50 [1] was 14.8 nM.

`COc1ncnc(C2CC2)c1-c1ncc2c(n1)N(Cc1ccc(-c3nc(C(F)(F)F)cn3C)c(F)c1)N(C)C(=O)N2C` [Compound 84, 7-(4-cyclopropyl-6-methoxypyrimidin-5-yl)-1-(3-fluoro-4-(1-methyl-4-(trifluoromethyl)-1H-imidazol-2-yl)benzyl)-2,4-dimethyl-1,4-dihydropyrimido[5,4-e][1,2,4]triazin-3(2H)-one] was tested, and the IC50 [1] was 69.7 nM.

`Cc1cnc(-c2ccccc2C(C)C)nc1NCc1ccc(-n2ccnn2)cc1` [ML323, reference compound] gave a GI50 [2] of 1820 nM.
